Measured values reported in patent publication US10087142B2, “Azetidine derivatives useful as modulators of cortical cathecolaminergic neurotransmission” (Integrative Research Laboratories Sweden AB, priority 2015, dated 2018).

Key:
[1] = test system: non-pre-treated Sprague-Dawley rats; assay: Locomotor activity in drug-naïve rats (behaviour test); type: in vivo, rat; settings: recorded 60 minutes, n = 5
Protocol: The effect of compounds in the present disclosure on locomotor activity in drug-naïve rats was also investigated. The animals were placed in the motility meters immediately after drug administration and locomotor activity was recorded for 60 minutes (counts/60 min±SEM). The results are presented as percent of control.
Behavioural activity was measured using eight Digiscan activity monitors (RXYZM (16) TAO, Omnitech Electronics, Columbus, Ohio, USA), connected to an Omnitech Digiscan analyzer and an Apple Macintosh computer equipped with a digital interface board (NB DIO-24, National Instruments, USA). Each activity monitor consisted of a quadratic metal frame (W×L=40 cm×40 cm) equipped with photo beam sensors. During measurements of behavioural activity, a rat was put in a transparent acrylic cage (W×L×H, 40×40×30 cm) which in turn was placed in the activity monitor. Each activity monitor was equipped with three rows of infrared photo beam sensors, each row consisting of 16 sensors. Two rows were placed along the front and the side of the floor of the cage, at a 90° angle, and the third row was placed 10 cm above the floor to measure vertical activity. Photo beam sensors were spaced 2.5 cm apart. Each activity monitor was fitted in an identical sound and light attenuating box containing a weak house light and a fan.
The computer software was written using object oriented programming (LabVIEW™, National instruments, Austin, Tex., USA).
Behavioural data from each activity monitor, representing the position (horizontal center of gravity and vertical activity) of the animal at each time, were recorded at a sampling frequency of 25 Hz and collected using a custom written LABView™ application. The data from each recording session were stored and analyzed with respect to distance traveled. Each behavioural recording session lasted 60 min, starting approximately 5 min after the injection of test compound.
Compounds disclosed herein have been tested for effects on spontaneous locomotor activity in non-pre-treated Sprague-Dawley rats (based on accumulated distance traveled 0-60 min post dosing), and with doses up to 33 μmol/kg (s.c.).

DOPAC = assay: Neurochemistry: tissue levels of DOPAC in brain regions; type: in vivo, rat; settings: 33 μmol/kg s.c., rats, 65 min before sacrifice, n = 5; for DOPAC frontal cortex ± SEM: frontal cortex tissue; for DOPAC striatum ± SEM: striatum tissue
From the text: The change in turnover of dopamine in the terminal areas of the ascending dopaminergic projections of the mammalian brain can be illustrated by measuring of changes in biochemical indices in the brain e.g. changes in concentrations of dopamine metabolites such as 3,4-dihydroxyphenyl-acetic acid (DOPAC) in the striatum and frontal cortex.
The measurement of the tissue content of DOPAC is well established in the field of research since the 1960's. In short, male Sprague-Dawley rats are administered the test compound 60 minutes prior to decapitation. The brain is rapidly taken out and dissected. The striatum is rapidly frozen and subsequently quantitatively analyzed with respect to its content of DOPAC by means of HPLC and electrochemical detection. The number of animals used for each test compound/vehicle is 5/group.
After the behavioural activity sessions, the rats were decapitated and their brains rapidly taken out and put on an ice-cold petri-dish. The brains were dissected into a right and a left part of which the right part was analyzed for neurochemicals with HPLC and the left part was analyzed for gene expression. The limbic forebrain, the striatum, the frontal cortex, the hippocampus and the remaining hemispheral parts of each rat were dissected and frozen. Each brain part was subsequently analyzed with respect to its content of monoamines and their metabolites.
The monoamine transmitter substances (NA (noradrenaline), DA (dopamine), 5-HT (serotonin)) as well as one corresponding acid, (DOPAC (3,4-dihydroxyphenylacetic acid), were quantified in brain tissue homogenates by HPLC separations and electrochemical detection.
The analytical method is based on two chromatographic separations dedicated for amines or acids. Two chromatographic systems share a common auto injector with a 10-port valve and two sample loops for simultaneous injection on the two systems. Both systems are equipped with a reverse phase column (Luna C18 (2), dp 3 μm, 50*2 mm i.d., Phenomenex) and electrochemical detection is accomplished at two potentials on glassy carbon electrodes (MF-1000, Bioanalytical Systems, Inc.). The column effluent is passed via a T-connection to the detection cell or to a waste outlet. This is accomplished by two solenoid valves, which block either the waste or detector outlet. By preventing the chromatographic front from reaching the detector, better detection conditions are achieved. The aqueous mobile phase (0.4 ml/min) for the acid system contains citric acid 14 mM, sodium citrate 10 mM, Methanol 15% (v/v) and EDTA 0.1 mM. Detection potentials relative to Ag/AgCl reference are 0.45 and 0.60V. […] Detection potentials relative to Ag/AgCl reference are 0.45 and 0.65V.

| Compound | locomotor activity, percent of control means ([1]; 11 μmol/kg s.c.) | locomotor activity, percent of control means ([1]; 33 μmol/kg s.c.) | DOPAC frontal cortex ± SEM (DOPAC) | DOPAC striatum ± SEM (DOPAC) |
| --- | --- | --- | --- | --- |
| Cl.Fc1cccc(C(F)C2CNC2)c1F (single isomer, unassigned; (-)) [Example 1, (−)-3-[(2,3-Difluorophenyl)(Fluoro)Methyl]Azetidine Hydrochloric Acid Salt] | 61% | 91% | 188 ± 20% of control means | 100 ± 8% of control means |
| Fc1cc(F)cc(C(F)C2CNC2)c1.O=C(O)/C=C/C(=O)O (single isomer, unassigned; (-)) [Example 3, (−)-3-[(3,5-Difluorophenyl)(Fluoro)Methyl]Azetidine Fumarate Salt] | 68% | 46% | 161 ± 6% of control means | 83 ± 2% of control means |
